From patent US20150254433A1, “Methods and Models for Determining Likelihood of Cancer Drug Treatment Success Utilizing Predictor Biomarkers, and Methods of Diagnosing and Treating Cancer Using the Biomarkers” (priority 2014, published 2015)

System: breast cancer cell lines
Test: Drug response (GI50, 50% reduction in proliferation) of breast cancer cell lines in culture
Type: cell-based
Settings: comparison of sensitivity ranges across cell lines
Excerpt: Recently, large datasets describing the effects of various drugs on the growth of cancer cells in culture have been generated for the purpose of accelerating the preclinical evaluation of new compounds. One of largest datasets with respect to the number of drugs and breast cancer cell lines describes the effects of ninety (90) different drugs on seventy (70) different breast cancer cell lines. The dataset includes measurements of the concentration of each drug that causes a 50% reduction in the proliferation of cells in culture (i.e., GI50). […] Acquired resistance to chemotherapeutics or targeted agents is recognized and is being studied intensively. […] There appears to be a relatively large amount of intrinsic variability in the responses to drugs by these tumor-derived cell lines. These intrinsic differences in sensitivity, if replicated in breast tumors, could explain some of the variability in responses of tumors to chemotherapeutic drugs or targeted agents.
Another dataset that is statistically analyzed using lasso regression (e.g., a least absolute shrinkage and selection operator [i.e., lasso] regression model) includes responses of the cancer cell lines to various cancer treatment drugs (e.g., 5, 10, 20, 30, 40, 50 or more drugs). In one example described herein, the datasets include responses from approximately 90 drugs on 70 different breast cancer cell lines. As mentioned elsewhere herein, the drug response data are determined by measuring the concentration of drugs or compounds that causes a 50% reduction (e.g., GI50 or IC50 data) in the proliferation of the cells in culture.
Sensitivity is the negative base ten logarithm of the 50% growth inhibition concentration. In the RPPA dataset, which has the most cell lines, the HER2 overexpressing lines are clearly separated from the others. This difference was used to define HER2 overexpression (e.g., represented by open circles), and the same definition of overexpression versus normal expression is used in the other protein datasets and in other Figures herein. For the glycoprotein and MRM datasets, the base ten logarithms are given on the horizontal axes. The quantitative relationships between HER2 expression levels and drug sensitivities in FIG. 2 are shown in scatterplots, in which each point corresponds to a particular cell line. The protein datasets all include cell lines that overexpress HER2. These cell lines are generally clustered on the right sides of the plots as separate groups.

SMILES	range of observed drug sensitivities, in words, relative to another drug
O=c1[nH]c2ccccc2n1C1CCN(Cc2ccc(-c3nc4cc5[nH]cnc5cc4nc3-c3ccccc3)cc2)CC1 [Sigma AKT1,2 inhibitor]	significantly lower
CC(=O)O[C@@]12CO[C@@H]1C[C@H](O)[C@@]1(C)C(=O)[C@H](O)C3=C(C)[C@@H](OC(=O)[C@H](O)[C@@H](NC(=O)OC(C)(C)C)c4ccccc4)C[C@@](O)([C@@H](OC(=O)c4ccccc4)[C@H]21)C3(C)C [docetaxel]	much smaller range than the sensitivity of the cell lines to rapamycin
CC(=O)O[C@H]1C(=O)[C@@]2(C)[C@H]([C@H](OC(=O)c3ccccc3)[C@]3(O)C[C@H](OC(=O)[C@H](O)[C@@H](NC(=O)c4ccccc4)c4ccccc4)C(C)=C1C3(C)C)[C@]1(OC(C)=O)CO[C@@H]1C[C@@H]2O [paclitaxel]	much smaller range than the sensitivity of the cell lines to rapamycin

Same assay, conditions: sensitivity = negative base ten logarithm of the 50% growth inhibition concentration; difference between most and least sensitive cell lines

SMILES	range over which the cell lines varied in sensitivity to the drug
CO[C@H]1C[C@@H]2CC[C@@H](C)[C@@](O)(O2)C(=O)C(=O)N2CCCC[C@H]2C(=O)O[C@H]([C@H](C)C[C@@H]2CC[C@@H](OCCO)[C@H](OC)C2)CC(=O)[C@H](C)/C=C(\C)[C@@H](O)[C@@H](OC)C(=O)[C@H](C)C[C@H](C)/C=C/C=C/C=C/1C [everolimus]	3.3 orders of magnitude
Nc1ccn([C@@H]2O[C@H](CO)[C@@H](O)C2(F)F)c(=O)n1 [gemcitabine]	approximately four
CO[C@H]1C[C@@H]2CC[C@@H](C)[C@@](O)(O2)C(=O)C(=O)N2CCCC[C@H]2C(=O)O[C@H]([C@H](C)C[C@@H]2CC[C@@H](O)[C@H](OC)C2)CC(=O)[C@H](C)/C=C(\C)[C@@H](O)[C@@H](OC)C(=O)[C@H](C)C[C@H](C)/C=C/C=C/C=C/1C [rapamycin]	4.6 orders of magnitude
CO[C@H]1C[C@@H]2CC[C@@H](C)[C@@](O)(O2)C(=O)C(=O)N2CCCC[C@H]2C(=O)O[C@H]([C@H](C)C[C@@H]2CC[C@@H](OC(=O)C(C)(CO)CO)[C@H](OC)C2)CC(=O)[C@H](C)/C=C(\C)[C@@H](O)[C@@H](OC)C(=O)[C@H](C)C[C@H](C)/C=C/C=C/C=C/1C [temsirolimus]	3.7 orders of magnitude
CCC1=C[C@@H]2CN(C1)Cc1c([nH]c3ccccc13)[C@@](C(=O)OC)(c1cc3c(cc1OC)N(C)[C@H]1[C@@](O)(C(=O)OC)[C@H](OC(C)=O)[C@]4(CC)C=CCN5CC[C@]31[C@@H]54)C2 [vinorelbine]	approximately four

System: breast cancer cell lines
Test: not given
Settings: FIG. 2; HER2 over-expressing versus other breast cancer cell lines; cited from earlier work

SMILES	drug sensitivity of HER2 over-expressing cell lines
CS(=O)(=O)CCNCc1ccc(-c2ccc3ncnc(Nc4ccc(OCc5cccc(F)c5)c(Cl)c4)c3c2)o1 [lapatinib]	comparatively high drug sensitivity
